Measurements from patent publication US12138256B2, “Treatment of cardiopulmonary disorders” (Bayer Aktiengesellschaft, priority 2021, dated 2024).

System: sGC (cGMP)
Test: Phase I, healthy male subjects, 7 days once daily inhalation: cGMP in blood samples (C-4.1)
Format: in vivo, human
Experimental: Healthy White male subjects, aged 18 to 45 years and with a body mass index (BMI) above/equal 18.5 and below/equal 29.9 kg/m2 were treated in a clinical pharmacological phase I study on seven days with inhaled once daily doses of 480 μg or 1000 μg or 2000 μg (2 capsules of 1000 μg) (nominal dose) of dry powder formulations of example 2 or Placebo. The subjects inhaled the drug powder from capsules (see under D-1, e.g. tables 22 and 23) inserted into a handheld inhalation device by one deep inhalative breath. The dry powder formulation of the drug is dispersed into the airstream and fine particles are transported into the deep parts of the lung where it is intended to cause a vasodilation of the blood vessels in PH patients for a substantial reduction of increased blood pressure in the central pulmonary blood vessels in PAH patients or other subtypes of PH. This effect cannot be shown in subjects with healthy lungs. In addition inhaled drug causes a dilation of the bronchial airways and thus also improves disease states of lung diseases in PH patients with pathological bronchoconstriction. This effect was measured via bodyplethysmography as reduction of Specific Airway Resistance in healthy subjects. After the deep inhalative breath the subjects hold breath for 2 seconds, so that the dry powder drug condenses from the airstream onto the surface of the deeper lung areas where it is deposited close to its site of intended pharmacological action. The drug dissolutes over the day and equilibrates the lung via lining fluid.
Drug activity in healthy men was controlled in the healthy subjects by analysing blood samples for cGMP, the immediate product of sGC pharmacological activation prior after the first and after the last drug inhalation of the 7 days treatment in comparison to measurements on the pretreatment day for all doses.
This prolonged activity in comparison to systemic drug concentration is caused by the mode of administration as inhaled dry powder, that deposits drug in the deeper part of the lung leading to an active drug concentration over 24 h after a once daily inhalation.
At 10 days after the first treatment, mean cGMP concentrations had returned close to the concentration observed at the pre-dosing day.

## O=C(O)c1ccc(CCN(CCc2ccccc2OCc2ccc(-c3ccc(C(F)(F)F)cc3)cc2Cl)[C@H]2CCCc3nc(C(=O)O)ccc32)cc1 [example 2, (5S)-{[2-(4-Carboxyphenyl)ethyl][2-(2-{[3-chloro-4′-(trifluoromethyl)biphenyl-4-yl]methoxy}phenyl)-ethyl]amino}-5,6,7,8-tetrahydroquinoline-2-carboxylic acid]
480 μg once daily inhaled, 0 D 02 H 00 M
  cyclic guanosine monophosphate changes from baseline: 1.73 ± 0.82 nmol/L
480 μg once daily inhaled, 0 D 04 H 00 M
  cyclic guanosine monophosphate changes from baseline: 3.04 ± 1.39 nmol/L
480 μg once daily inhaled, 0 D 06 H 00 M
  cyclic guanosine monophosphate changes from baseline: 3.33 ± 1.39 nmol/L
480 μg once daily inhaled, 0 D 08 H 00 M
  cyclic guanosine monophosphate changes from baseline: 2.94 ± 1.38 nmol/L
480 μg once daily inhaled, 0 D 12 H 00 M
  cyclic guanosine monophosphate changes from baseline: 2.10 ± 1.18 nmol/L
480 μg once daily inhaled, 0 D 15 H 00 M
  cyclic guanosine monophosphate changes from baseline: 1.53 ± 1.50 nmol/L
480 μg once daily inhaled, 1 D 00 H 00 M
  cyclic guanosine monophosphate changes from baseline: 0.84 ± 0.89 nmol/L
480 μg once daily inhaled, 2 D 00 H 00 M
  cyclic guanosine monophosphate changes from baseline: 0.74 ± 1.59 nmol/L
480 μg once daily inhaled, 3 D 00 H 00 M
  cyclic guanosine monophosphate changes from baseline: 1.00 ± 1.92 nmol/L
480 μg once daily inhaled, 4 D 00 H 00 M
  cyclic guanosine monophosphate changes from baseline: 1.46 ± 1.24 nmol/L
480 μg once daily inhaled, 5 D 00 H 00 M
  cyclic guanosine monophosphate changes from baseline: 1.50 ± 0.98 nmol/L
480 μg once daily inhaled, 6 D 00 H 00 M
  cyclic guanosine monophosphate changes from baseline: 1.92 ± 1.21 nmol/L
480 μg once daily inhaled, 7 D 00 H 00 M
  cyclic guanosine monophosphate changes from baseline: 1.68 ± 0.85 nmol/L
480 μg once daily inhaled, 7 D 02 H 00 M
  cyclic guanosine monophosphate changes from baseline: 4.22 ± 2.29 nmol/L
480 μg once daily inhaled, 7 D 04 H 00 M
  cyclic guanosine monophosphate changes from baseline: 5.39 ± 2.34 nmol/L
480 μg once daily inhaled, 7 D 06 H 00 M
  cyclic guanosine monophosphate changes from baseline: 6.44 ± 2.26 nmol/L
480 μg once daily inhaled, 7 D 08 H 00 M
  cyclic guanosine monophosphate changes from baseline: 5.19 ± 1.64 nmol/L
480 μg once daily inhaled, 7 D 12 H 00 M
  cyclic guanosine monophosphate changes from baseline: 3.71 ± 1.79 nmol/L
480 μg once daily inhaled, 7 D 15 H 00 M
  cyclic guanosine monophosphate changes from baseline: 3.04 ± 2.09 nmol/L
480 μg once daily inhaled, 8 D 00 H 00 M
  cyclic guanosine monophosphate changes from baseline: 1.69 ± 2.65 nmol/L
480 μg once daily inhaled, 8 D 12 H 00 M
  cyclic guanosine monophosphate changes from baseline: 0.69 ± 1.53 nmol/L
480 μg once daily inhaled, 9 D 00 H 00 M
  cyclic guanosine monophosphate changes from baseline: 0.13 ± 1.97 nmol/L
480 μg once daily inhaled, 9 D 12 H 00 M
  cyclic guanosine monophosphate changes from baseline: 1.10 ± 1.01 nmol/L
480 μg once daily inhaled, 10 D 00 H 00 M
  cyclic guanosine monophosphate changes from baseline: -0.00 ± 0.64 nmol/L
480 μg, 0 D 00 H 00 M
  cyclic guanosine monophosphate changes from baseline: 0.11 ± 1.10 nmol/L
480 μg, 0 D 00 H 00 M (baseline)
  cGMP, mean ± SD: 5.51 ± 1.00 nmol/L
480 μg, 0 D 02 H 00 M
  cGMP, mean ± SD: 7.24 ± 1.25 nmol/L
480 μg, 0 D 04 H 00 M
  cGMP, mean ± SD: 8.56 ± 1.45 nmol/L
480 μg, 0 D 06 H 00 M
  cGMP, mean ± SD: 8.84 ± 1.35 nmol/L
480 μg, 0 D 08 H 00 M
  cGMP, mean ± SD: 8.46 ± 1.59 nmol/L
480 μg, 0 D 12 H 00 M
  cGMP, mean ± SD: 7.61 ± 1.01 nmol/L
480 μg, 0 D 15 H 00 M
  cGMP, mean ± SD: 7.04 ± 1.50 nmol/L
480 μg, 1 D 00 H 00 M
  cGMP, mean ± SD: 6.36 ± 1.10 nmol/L
480 μg, 2 D 00 H 00 M
  cGMP, mean ± SD: 6.26 ± 2.17 nmol/L
480 μg, 3 D 00 H 00 M (trough)
  cGMP, mean ± SD: 6.51 ± 2.62 nmol/L
480 μg, 4 D 00 H 00 M (trough)
  cGMP, mean ± SD: 6.97 ± 1.96 nmol/L
480 μg, 5 D 00 H 00 M (trough)
  cGMP, mean ± SD: 7.01 ± 1.72 nmol/L
480 μg, 6 D 00 H 00 M (trough)
  cGMP, mean ± SD: 7.43 ± 1.69 nmol/L
480 μg, 7 D 00 H 00 M (trough)
  cGMP, mean ± SD: 7.19 ± 1.47 nmol/L
480 μg, 7 D 02 H 00 M
  cGMP, mean ± SD: 9.73 ± 3.00 nmol/L
480 μg, 7 D 04 H 00 M
  cGMP, mean ± SD: 10.90 ± 3.12 nmol/L
480 μg, 7 D 06 H 00 M
  cGMP, mean ± SD: 11.96 ± 2.80 nmol/L
480 μg, 7 D 08 H 00 M
  cGMP, mean ± SD: 10.70 ± 2.27 nmol/L
480 μg, 7 D 12 H 00 M
  cGMP, mean ± SD: 9.22 ± 2.37 nmol/L
480 μg, 7 D 15 H 00 M
  cGMP, mean ± SD: 8.56 ± 2.80 nmol/L
480 μg, 8 D 00 H 00 M
  cGMP, mean ± SD: 7.20 ± 3.23 nmol/L
480 μg, 8 D 12 H 00 M
  cGMP, mean ± SD: 6.20 ± 2.00 nmol/L
480 μg, 9 D 00 H 00 M
  cGMP, mean ± SD: 5.64 ± 2.53 nmol/L
480 μg, 9 D 12 H 00 M
  cGMP, mean ± SD: 6.61 ± 1.80 nmol/L
480 μg, 10 D 00 H 00 M
  cGMP, mean ± SD: 5.51 ± 1.39 nmol/L
480 μg, −0 D 09 H 00 M (baseline)
  cGMP, mean ± SD: 5.60 ± 1.08 nmol/L
480 μg, −0 D 09 H 00 M (pretreatment day)
  cyclic guanosine monophosphate changes from baseline: 0.20 ± 1.59 nmol/L
480 μg, −0 D 12 H 00 M (baseline)
  cGMP, mean ± SD: 5.62 ± 1.26 nmol/L
480 μg, −0 D 12 H 00 M (pretreatment day)
  cyclic guanosine monophosphate changes from baseline: 0.22 ± 1.17 nmol/L
480 μg, −0 D 16 H 00 M (baseline)
  cGMP, mean ± SD: 5.81 ± 1.09 nmol/L
480 μg, −0 D 16 H 00 M (pretreatment day)
  cyclic guanosine monophosphate changes from baseline: 0.41 ± 0.96 nmol/L
480 μg, −0 D 18 H 00 M (baseline)
  cGMP, mean ± SD: 5.61 ± 0.71 nmol/L
480 μg, −0 D 18 H 00 M (pretreatment day)
  cyclic guanosine monophosphate changes from baseline: 0.21 ± 1.74 nmol/L
480 μg, −0 D 20 H 00 M (baseline)
  cGMP, mean ± SD: 5.92 ± 0.83 nmol/L
480 μg, −0 D 20 H 00 M (pretreatment day)
  cyclic guanosine monophosphate changes from baseline: 0.52 ± 0.95 nmol/L
480 μg, −0 D 22 H 00 M (baseline)
  cGMP, mean ± SD: 6.57 ± 1.22 nmol/L
480 μg, −0 D 22 H 00 M (pretreatment day)
  cyclic guanosine monophosphate changes from baseline: 1.17 ± 1.00 nmol/L
480 μg, −1 D 02 H 00 M (baseline)
  cGMP, mean ± SD: 5.40 ± 1.41 nmol/L
1000 μg once daily inhaled, 0 D 02 H 00 M
  cyclic guanosine monophosphate changes from baseline: 3.26 ± 2.04 nmol/L
1000 μg once daily inhaled, 0 D 04 H 00 M
  cyclic guanosine monophosphate changes from baseline: 5.64 ± 2.54 nmol/L
1000 μg once daily inhaled, 0 D 06 H 00 M
  cyclic guanosine monophosphate changes from baseline: 6.78 ± 2.79 nmol/L
1000 μg once daily inhaled, 0 D 08 H 00 M
  cyclic guanosine monophosphate changes from baseline: 5.94 ± 2.65 nmol/L
1000 μg once daily inhaled, 0 D 12 H 00 M
  cyclic guanosine monophosphate changes from baseline: 4.86 ± 2.91 nmol/L
1000 μg once daily inhaled, 0 D 15 H 00 M
  cyclic guanosine monophosphate changes from baseline: 3.70 ± 2.59 nmol/L
1000 μg once daily inhaled, 1 D 00 H 00 M
  cyclic guanosine monophosphate changes from baseline: 1.26 ± 1.98 nmol/L
1000 μg once daily inhaled, 2 D 00 H 00 M
  cyclic guanosine monophosphate changes from baseline: 0.33 ± 1.99 nmol/L
1000 μg once daily inhaled, 3 D 00 H 00 M
  cyclic guanosine monophosphate changes from baseline: 2.31 ± 2.68 nmol/L
1000 μg once daily inhaled, 4 D 00 H 00 M
  cyclic guanosine monophosphate changes from baseline: 2.86 ± 2.63 nmol/L
1000 μg once daily inhaled, 5 D 00 H 00 M
  cyclic guanosine monophosphate changes from baseline: 3.59 ± 2.51 nmol/L
1000 μg once daily inhaled, 6 D 00 H 00 M
  cyclic guanosine monophosphate changes from baseline: 4.32 ± 2.82 nmol/L
1000 μg once daily inhaled, 7 D 00 H 00 M
  cyclic guanosine monophosphate changes from baseline: 4.74 ± 2.98 nmol/L
1000 μg once daily inhaled, 7 D 02 H 00 M
  cyclic guanosine monophosphate changes from baseline: 6.93 ± 2.99 nmol/L
1000 μg once daily inhaled, 7 D 04 H 00 M
  cyclic guanosine monophosphate changes from baseline: 10.84 ± 2.91 nmol/L
1000 μg once daily inhaled, 7 D 06 H 00 M
  cyclic guanosine monophosphate changes from baseline: 11.79 ± 3.70 nmol/L
1000 μg once daily inhaled, 7 D 08 H 00 M
  cyclic guanosine monophosphate changes from baseline: 11.00 ± 4.58 nmol/L
1000 μg once daily inhaled, 7 D 12 H 00 M
  cyclic guanosine monophosphate changes from baseline: 9.19 ± 5.26 nmol/L
1000 μg once daily inhaled, 7 D 15 H 00 M
  cyclic guanosine monophosphate changes from baseline: 8.00 ± 4.41 nmol/L
1000 μg once daily inhaled, 8 D 00 H 00 M
  cyclic guanosine monophosphate changes from baseline: 4.47 ± 3.81 nmol/L
1000 μg once daily inhaled, 8 D 12 H 00 M
  cyclic guanosine monophosphate changes from baseline: 2.30 ± 3.05 nmol/L
1000 μg once daily inhaled, 9 D 00 H 00 M
  cyclic guanosine monophosphate changes from baseline: 1.38 ± 2.59 nmol/L
1000 μg once daily inhaled, 9 D 12 H 00 M
  cyclic guanosine monophosphate changes from baseline: 1.02 ± 2.24 nmol/L
1000 μg once daily inhaled, 10 D 00 H 00 M
  cyclic guanosine monophosphate changes from baseline: 1.42 ± 2.87 nmol/L
1000 μg, 0 D 00 H 00 M
  cyclic guanosine monophosphate changes from baseline: -0.11 ± 1.62 nmol/L
1000 μg, 0 D 00 H 00 M (baseline)
  cGMP, mean ± SD: 4.91 ± 1.27 nmol/L
1000 μg, 0 D 02 H 00 M
  cGMP, mean ± SD: 8.17 ± 1.07 nmol/L
1000 μg, 0 D 04 H 00 M
  cGMP, mean ± SD: 10.56 ± 1.47 nmol/L
1000 μg, 0 D 06 H 00 M
  cGMP, mean ± SD: 11.69 ± 1.86 nmol/L
1000 μg, 0 D 08 H 00 M
  cGMP, mean ± SD: 10.86 ± 1.66 nmol/L
1000 μg, 0 D 12 H 00 M
  cGMP, mean ± SD: 9.77 ± 2.11 nmol/L
1000 μg, 0 D 15 H 00 M
  cGMP, mean ± SD: 8.61 ± 1.63 nmol/L
1000 μg, 1 D 00 H 00 M
  cGMP, mean ± SD: 6.17 ± 1.05 nmol/L
1000 μg, 2 D 00 H 00 M
  cGMP, mean ± SD: 5.24 ± 1.28 nmol/L
1000 μg, 3 D 00 H 00 M (trough)
  cGMP, mean ± SD: 7.22 ± 2.04 nmol/L
1000 μg, 4 D 00 H 00 M (trough)
  cGMP, mean ± SD: 7.77 ± 1.87 nmol/L
